Results from US20250090603A1, “COMPOSITIONS CONTAINING BACILLAENE PRODUCING BACTERIA OR PREPARATIONS THEREOF” (Evonik Operations GmbH, priority 2019, published 2025).

Columns and labels:
[1] = system: Vibrio parahaemolyticus DSM 10027; type: cell-based; conditions: concluded from experiments with knock-out mutants
[2] = system: S. enterica subsp. enterica enteritidis DSM 14221; type: cell-based, Salmonella enterica

C/C(=C/C=C/C=C/C(C)C(=O)O)NC(=O)CC(O)\C(C)=C/C=C\C=C(C)\C=C\C=C/C=C/CNC(=O)C(O)CC(C)C (centres unmarked) [bacillaene]
inhibition of growth of Vibrio parahaemolyticus (in words) [1]: effectively inhibit the growth | inhibition of growth of Salmonella enterica (in words) [2]: effectively inhibit the growth
